The text below walks through data of patent US20250025440A1, “COMPOSITIONS AND METHODS FOR MANAGEMENT OF HUMAN PAPILLOMA VIRUS-ASSOCIATED CANCERS” (LOMA LINDA UNIVERSITY, priority 2021, published 2025).

Assay [1] concerns SCC90 and SCC104 (HPV+) cells. Description: Western blotting of p53 and apoptosis mediators. The class given is cell-based. Particulars: 0.5 μM and 1 μM, 24 hours. As for the experimental part:
(§1) Based on the cell viability studies described above, as well as AlphaScreen™ data showing that that GA-OH prevents E6 from binding to both caspase 8 and the p53-recruiter, E6AP, activation of p53 and associated apoptotic effects could be contributing to the decrease in cell viability. Levels of p53 and its target gene product, p21, were evaluated using immunoblotting. […] FIG. 8A is a photographic image of blots analyzing Caspase 8 expression and activation of downstream targets. SCC19, SCC90 and SCC104 were seeded and treated with vehicle, 0.5 μM and 1 μM Of GA-OH for 24 hours. Activation of p53 was tested by blotting for p53 expression and activation. Caspase 8 activation and apoptosis was tested by blotting for Caspase 8 expression and activation of downstream targets. These observations were corroborated by an induction of the levels of the target of p53, p21. […] The basal levels of p53 in the HPV^+ cell lines are lower compared to the HPV^− cell line.
(§2) The effect of GA-OH treatment on activation of another target of E6, caspase 8, and its downstream targets in the apoptosis cascade was evaluated. […] There is a noticeable increase in caspase 8 levels in the HPV^− cell line upon exposure to GA-OH. […] Quantification of relative expression of each of the targets above using B-actin as a loading control. FIGS. 9A-9E are graphical representations of the relative expression of cleaved PARP, p53, p21, cleaved caspase 3, and cleaved caspase 8, respectively in SCC19, SCC90 and SCC104 cell lines when treated with vehicle, or 0.5 μM, or 1 μM of GA-OH, each of the targets above using B-actin as a loading control is shown.
(§3) Adherent cells were washed with ice cold PBS. Cell lysis buffer containing protease inhibitor cocktail was added and cells were scraped off into a tube on ice. The cells were incubated on ice for 10 minutes. Cell lysates were separated by SDS-PAGE and electrophoretically transferred to PVDF membranes. Following blocking, antibodies directed against caspase 8, p53, cleaved PARP, cleaved caspase 3, p21, and β-actin (Cell signaling) were applied at 1:5000 dilution. Anti-mouse and anti-rabbit secondary antibodies were then employed (LI-COR Biosciences, Lincoln, NE, USA). Signals were measured using the Odyssey Infrared Imaging system (LI-COR Biosciences) and quantified using Image J.
For orientation: A western blot detects proteins with antibodies after separation by electrophoresis.

In assay [2] the test system is SCC19 (HPV-) cells. Put plainly: Western blotting of p53 and apoptosis mediators. Format: cell-based. Conditions: HPV- cell line, 0.5 μM and 1 μM, 24 hours. The method, then: as §1, §2, §3

With 30-hydroxygambogic acid [GA-OH], in assay [1], the PARP cleavage result was “cleavage is modest”, the “caspase 3 cleavage” value is recorded as “cleaved dose-dependently”, the “caspase 8 cleavage” value was “cleavage of caspase 8 in a dose-dependent manner” and the p53 level result is listed as “increase of p53”. For the same substance, the p21 level entry in assay [1] (vs vehicle) is listed as “robust induction of p21 levels”. The “caspase 8 cleavage” value in assay [2] is “no visible cleavage of caspase 8”.
